Data on one molecule can be found in patent publication US20150018305A1, “SIRTUIN INDUCER, TISSUE REPAIRING AGENT, HEPATOCYTE GROWTH FACTOR INDUCER, TISSUE HOMEOSTASIS MAINTENANCE AGENT, AND TLR4 AGONIST, HAVING HYALURONIC ACID FRAGMENT AS ACTIVE INGREDIENT” (HYALURONAN RESEARCH INSTITUTE, INC., priority 2012, published 2015).

The assay relates to rat bone marrow mesenchymal stem cells. Put plainly: Hydrogen peroxide induced aging of rat bone marrow mesenchymal stem cells, PI dead cell count (Test Example 21). It is filed as cell-based. The following applies: 2 hours. The method, then: It was investigated whether the process, in which rat bone marrow mesenchymal stem cells experienced cellular aging (increased cell death) when treated with hydrogen peroxide, is affected by treatment with the hyaluronic acid fragment. Specifically, the following test was performed.
Using a DMEM culture medium (made by Wako Pure Chemical Industries, Ltd.), rat bone marrow mesenchymal stem cells were cultured by usual methods at 37° C. under 5% CO2. Hydrogen peroxide was added to the culture medium to a final concentration of 1 μM to bring about stimulation for a 15-minute period, and the culture broth was then transferred to DMEM culture medium containing no added hyaluronic acid fragments; to DMEM culture medium containing hyaluronic acid fragment (L3mer) added to a final concentration of 100 ng/ml; or to DMEM culture medium containing the hyaluronic acid fragment (L3mer) plus TLR4/MD2 added to a final concentration of 10 μg/ml, and cultured for 2 hours.
After 2 hours had passed, PI ([…]), which emits red fluorescence upon uptake into dead cells, was added to the culture medium to a final concentration of 5 μg/ml, and after incubation for 15 minutes, the condition of appearance of dead cells was examined with a fluorescence microscope.

Turning to `CC(=O)NC1C(O[C@@H]2OC(C(=O)O)[C@@H](O)C(O)C2O)[C@H](O)C(CO)O[C@H]1O[C@@H]1C(C(=O)O)O[C@@H](OCCCN=[N+]=[N-])C(O)C1O` (some centres unmarked) [L3mer], the “suppression of cell death with TLR4/MD2 added” value (100 ng/ml plus TLR4/MD2 10 μg/ml) was “inhibited by addition of TLR4/MD2”. In addition, the “hydrogen peroxide-induced cellular aging (increased cell death, dead cells per unit visual field)” value (hydrogen peroxide 1 μM, 100 ng/ml, PI staining) was “suppressed”.
